The text below walks through data of US20170266319A1, “METHODS AND COMPOSITIONS FOR TREATING CONDITIONS ASSOCIATED WITH SPINAL CORD INJURY” (priority 2016, published 2017).

Common to all, as to type: in vivo
In experiment [1] the test system is Vglut2+ spinal interneurons expressing hM4Di DREADD. The experiment in a line: DREADD experiment: T3 SCI immune suppression, Vglut2-Cre mice. Particulars: T3 SCI Vglut2-Cre mice with AAV8-hSyn-DIO-hM4D(Gi)-mCherry; CNO 1 mg/kg 2x/day, day 14-27 post-injury; day 28. How it is done:
(§1) AAV8-hSyn-DIO-hM4Di-mCherry (AAV8-hSyn-DIO-hM4D(Gi)-mCherry; 7×10^12 vg/ml; UNC Vector Core) was injected into T5 and 7 levels of the spinal cord of Vglut2-Cre, Chat-Cre, or WT mice at P14 (0.8 μl/site, 0.25 mm lateral, 0.5 mm in depth). […] T3 SCI was induced at 8 weeks old, and then CNO (1.0 mg/kg body weight, i.p.; Sigma) was injected twice per day from day 14 to 27 post-injury (FIG. 3b). Small cohorts of mice from each colony were used as they reached the appropriate age for experimentation. […]
(§2) Spleens were harvested in Flow Cytometry Staining Buffer (eBioscience) and cell suspensions were made by expressing spleen tissue through a cell strainer using the plunger of a 10 ml syringe. […] Splenocytes were counted on a hemocytometer and 5×10^5 cells were incubated with Fc-block (anti-mouse-CD16/CD32 antibody; eBioscience). […] Splenocytes (10,000 events/sample) were analyzed using a FACSCanto flow cytometer with FACSDiva software (BD Biosciences). […] The number of each subset was calculated as the percentage of labeled cells multiplied by the total number of splenocytes.

Experiment [2] deals with hM4Di-expressing Vglut2+ spinal interneurons. The experiment in a line: Colorectal distension (CRD) and c-Fos analyses after chemogenetic silencing. Particulars: T3 SCI Vglut2-Cre mice injected with AAV-hSyn-DIO-hM4Di-mCherry; CNO 1.0 mg/kg i.p. 30 min before CRD, day 28 post-injury, vs vehicle. On the procedure: Colorectal distension was induced as previously reported3, 12, 13 with minor modification. A 4-French, 60 mm balloon-tipped catheter (Swan-Ganz monitoring catheter model 116F4; Edwards Life Sciences) was inserted 1.5 cm into the rectum before securing the catheter to the tail with surgical tape. The balloon was inflated with 0.2 ml of air for 30 sec then deflated 60 sec. This 90 sec cycle was repeated for 90 min. Mice were perfused 30 min after the final cycle of inflation. The number of c-Fos^+ cells were counted and analyzed in 2 representative horizontal spinal cord sections at T4-9 level from multiple SCI animals with or without CRD stimulation. The number of animals analyzed were: uninjured with or without CRD, n=3/group; T3 SCI (day 28) without CRD, n=3; T3 SCI (day 28) with CRD, n=5; Vglut2-Cre; cc-EGFP+T3 SCI (day 28) with CRD, n=3; Chat-Cre; cc-EGFP+T3 SCI (day 28) with CRD, n=3 (FIG. 7). To evaluate the effects of DREADD in mice with CRD-induced activation of visceral-sympathetic reflex, CNO (1.0 mg/kg body weight, i.p.; Sigma) or vehicle saline was injected into Vglut2-Cre+T3SCI+AAV8-hSyn-DIO-hM4D(Gi)-mCherry mice at day 28 post-injury, 30 min before the induction of CRD (n=3 each) (FIG. 9).

Experiment [3] has as its system Chat+ spinal interneurons expressing hM4Di DREADD. Description: DREADD experiment: T3 SCI immune suppression, Chat-Cre mice. Particulars: T3 SCI Chat-Cre mice with AAV8-hSyn-DIO-hM4D(Gi)-mCherry; CNO 1 mg/kg 2x/day, day 14-27 post-injury. How it is done: as §1, §2

Entries after “also recorded” stand apart in the source; their conditions may differ.

Turning to `C[N+]1([O-])CCN(C2=Nc3cc(Cl)ccc3Nc3ccccc32)CC1` [CNO, clozapine-N-oxide], in experiment [1], the Splenic atrophy result is “reversed”; the “Total numbers of splenocytes, including CD4+ and CD8+ T cells and B220+ B cells” value is “restored to pre-injury levels”. The “c-Fos expression elicited by colorectal distension (silencing of hM4DGi+ spinal neurons)” value in experiment [2] is “reduces c-Fos expression; also recorded: significant silencing”. For the same molecule, the Immune protection result in experiment [3] was “modest non-significant immune protection”.
